The subject of one data set is P. berghei. To be noted: in vivo, po.
Data set [1] can be described thus: Turbidimetric kinetic aqueous solubility. The data set is classed as physicochemical. Particulars: turbidimetric method, PBS pH 7.4, read-out: Sol. (solubility). The protocol: Aqueous Solubility. Solubility was measured from amorphous solid forms of the compounds using the turbidimetric method. Following the dissolution of test compound in DMSO to make a 10 mM stock solution, a pre-dilution plate was prepared by taking from each stock solution and serially […]
pre-dilution solution, secondary dilutions of the compounds in both DMSO and 0.01M pH 7.4 PBS were prepared in triplicate on a second 96-well plate. Wells in columns 1-6 would contain […]
(§1) nominal concentrations as those in DMSO. The final volume of solvent in each assay plate was 200 µl, prepared by pipetting 4 µl each of solution from the pre-dilution plate to the corresponding well into both DMSO and PBS (both 196 µL). This ensures that the final concentration of DMSO in the […]
(§2) Similarly, a second secondary plate containing
(§3) Different concentrations in DMSO were prepared as controls to determine false turbidimetric absorbance readings arising from the compounds in solution absorbing incident radiation at the test wavelength. Following preparation, the assay plate was covered and left to equilibrate for 2 h at 25 °C. Afterwards, UV-vis absorbance readings from the plate were measured at 620 nm using a SpectraMax 340PC384 microplate reader. Plots of corrected absorbance against compound concentration were computed for a graphical representation of the data using MS Excel. Reserpine and hydrocortisone were used as positive and negative controls, respectively.
(§4) In vitro Antiplasmodium Assay. The compounds were tested using the modified [3H]-hypoxanthine incorporation assay, as previously reported.1
(§5) In vitro Cytotoxicity Assay. Compounds were screened against Chinese Hamster Ovarian (CHO) mammalian cell lines, using the 3-(4,5-dimethylthiazol-2-yl)-2,5-diphenyltetrazoliumbromide […]
It was prepared to 2 mg/ml in distilled water, while the stock solutions of test compounds were prepared to 20 mg/ml in DMSO (100%), […]
lowest being 0.001 µg/ml. […]
of cell suspension in each well and developed afterward by adding 25 µl of sterile MTT (Thermo

In data set [2] the test system is drug sensitive (NF54) strain of Pf. In words: In vitro antiplasmodium assay, [3H]-hypoxanthine incorporation, NF54. The data set is classed as cell-based, Plasmodium falciparum. Particulars: for IC50: mean n ≥ 2. The protocol:
All target compounds were evaluated for their antiplasmodium activity against the drug sensitive (NF54) strain of Pf and for turbidimetric kinetic solubility.
Aqueous Solubility. Solubility was measured from amorphous solid forms of the compounds using the turbidimetric method. Following the dissolution of test compound in DMSO to make a 10 mM stock solution, a pre-dilution plate was prepared by taking from each stock solution and serially diluting in triplicate to yield concentrations from 0.25 mM to 10.0 mM on a 96 well plate. From each pre-dilution solution, secondary dilutions of the compounds in both DMSO and 0.01M pH 7.4 PBS were prepared in triplicate on a second 96-well plate. Wells in columns 1-6 would contain […]
as §1, §2, §3, §4, §5

Data set [3] concerns PfK1 multidrug resistant strain. The data set is described as follows: microbe, parasite or virus in culture. The data set is classed as cell-based, Plasmodium falciparum.
The test system of data set [4] is immature-stage gametocytes (PfiGc), NF54-PfS16-GFP-Luc. In words: Antigametocytic luciferase reporter assay, immature/early stage. Particulars: Plasmodium falciparum; for inhibition at 1 µM / inhibition at 5 µM: NF54, 48 h; for inhibition at 1 µM: read-out: Early gametocytes (EG) % activity, 1.0 µM; for inhibition at 5 µM: read-out: Early gametocytes (EG) % activity, 5.0 µM. (In general: A reporter such as luciferase makes a cellular process visible.)

The next data set addresses T1, hERG K+ channel (Homo sapiens, UniProt Q12809).
T1 construct: host or cells: CHO K1 (ATCC), stably expressing hERG
The data set is described as follows: QPatch hERG assay. The data set is classed as cell-based. Particulars: CHO K1 cells stably expressing hERG.

The subject of data set [5] is late-stage gametocytes (PfLGc), NF54-PfS16-GFP-Luc. In words: Antigametocytic luciferase reporter assay, late stage. Particulars: Plasmodium falciparum; for inhibition at 1 µM / inhibition at 5 µM: NF54, 48 h; for inhibition at 1 µM: read-out: Late gametocytes (LG) % activity, 1.0 µM; for inhibition at 5 µM: read-out: Late gametocytes (LG) % activity, 5.0 µM. The source says: (§6) In vitro Antigametocytic Activity Assay. Gametocytes were produced as per the method reported by Reader and co-workers.3 The luciferase reporter assay was used to enable accurate, reliable and quantifiable investigations of the stage-specific action of gametocytocidal compounds for the early and late gametocyte marker cell line NF54-PfS16-GFP-Luc.
(§7) (representing >90% of either early stage II/III or mature/late stage IV/V gametocytes, respectively). […]
(§8) h drug pressure in a gas chamber (90% N 2, 5% O 2, and 5% CO 2) at 37 °C. Luciferase activity was determined in 30 µl parasite lysates by adding 30 µl luciferin substrate (Promega Luciferase Assay System) at room temperature and detection of resultant bioluminescence at an integration constant of 10s with the GloMax® Explorer Detection System with Instinct® Software. […]
(§9) µM) and internal project specific controls were included as controls. The dual point screens were performed as technical triplicates for a single biological assay.

Data set [6] deals with late-stages (IV – V) gametocytes. In words: microbe, parasite or virus in culture. To be noted: Plasmodium falciparum.
Text: as §6, §7, §8, §9

Structures are written as SMILES. Values after ≈ are worked out from the molar mass of the structure shown. Where two headings read alike, the source gives them in different places.

Here are results for 6 compounds from PMC11017395 (ACS Medicinal Chemistry Letters, 2024).

T1 sequence (Q12809 whole entry): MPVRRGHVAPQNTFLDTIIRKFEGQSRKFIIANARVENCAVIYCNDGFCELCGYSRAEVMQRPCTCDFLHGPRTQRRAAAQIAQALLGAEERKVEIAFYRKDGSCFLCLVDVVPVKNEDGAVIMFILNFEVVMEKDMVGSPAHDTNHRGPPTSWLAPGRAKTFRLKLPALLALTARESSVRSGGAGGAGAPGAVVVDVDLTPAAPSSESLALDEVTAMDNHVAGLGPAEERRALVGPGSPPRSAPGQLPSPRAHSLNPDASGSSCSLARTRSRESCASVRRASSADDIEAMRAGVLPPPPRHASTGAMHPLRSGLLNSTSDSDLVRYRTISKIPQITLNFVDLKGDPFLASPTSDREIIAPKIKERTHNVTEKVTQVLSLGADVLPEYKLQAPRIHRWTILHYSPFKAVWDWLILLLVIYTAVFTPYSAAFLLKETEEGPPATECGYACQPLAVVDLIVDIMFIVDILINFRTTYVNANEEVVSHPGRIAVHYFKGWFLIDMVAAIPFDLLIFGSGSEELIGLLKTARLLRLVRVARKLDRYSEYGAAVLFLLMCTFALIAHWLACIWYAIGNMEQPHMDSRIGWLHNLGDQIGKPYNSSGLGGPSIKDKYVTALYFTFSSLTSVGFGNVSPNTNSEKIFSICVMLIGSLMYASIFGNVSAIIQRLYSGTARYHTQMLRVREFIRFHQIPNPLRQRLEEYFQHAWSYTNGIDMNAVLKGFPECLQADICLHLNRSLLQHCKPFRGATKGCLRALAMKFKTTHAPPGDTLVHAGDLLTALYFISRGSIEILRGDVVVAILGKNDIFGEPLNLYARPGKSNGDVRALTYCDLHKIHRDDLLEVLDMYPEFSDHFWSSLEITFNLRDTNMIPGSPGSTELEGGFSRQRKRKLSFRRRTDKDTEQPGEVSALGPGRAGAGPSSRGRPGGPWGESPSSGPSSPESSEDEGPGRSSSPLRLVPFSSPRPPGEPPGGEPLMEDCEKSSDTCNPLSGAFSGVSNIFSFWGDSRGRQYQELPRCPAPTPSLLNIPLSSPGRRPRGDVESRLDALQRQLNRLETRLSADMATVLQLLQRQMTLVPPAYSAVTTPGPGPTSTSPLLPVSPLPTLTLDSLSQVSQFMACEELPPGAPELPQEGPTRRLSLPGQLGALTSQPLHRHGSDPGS
Description for P. berghei: In vivo Antiplasmodium Assay (Swiss TPH).
described,5 with the modification that mice (n = 3) were infected with a GFP -transfected P. berghei
ANKA strain (donated by A. P. Waters and C. J. Janse, Leiden University, The Netherlands), and
parasitemia was determined using standard flow cytometry techniques. The detection limit was 1
parasite in 1000 erythrocytes (that is, 0.1%). The activity was calculated as the difference between
the mean percent parasitemia for the control and treated groups expressed as a percent relative to the
control group. Compounds were dissolved or suspended in a vehicle consisting of 70% Tween -80
and 30% ethanol, followed by a 10 -fold dilution in H 2O and oral administration as four consecutive
Blood samples for the quadruple -dose regimens
The survival time in days was also recorded up to 30
days after infection. A compound was considered curative if the animal survived to day 30 after
infection with no detectable parasites by slide reading .
Description for hERG K+ channel: In vitro Liver-stage Assay (P. berghei-sporozoite Infection). In a 24-well plate, HepG2 was seeded
employed as reference drugs. Negative control wells received medium only.
cells were trypsinized and the percentage (%) of infected cells was determined by flow cytometry
(BD LSRFortessa) using at least 10000 events. For determining host cell viability, in a 96-well plate,
h of incubation, a volume 100 µl of medium containing drugs was added and further incubated at 37
°C. Negative control wells received medium only and positive wells received gentian violet. After
Drugs were tested in five different concentrations, each one in

Consider `CCN(CC)CCCC(C)Nc1ccnc2cc(Cl)ccc12` (stereo not drawn) [CQ, chloroquine], for which the “MSD (mean survival days)” value with P. berghei amounted to 24 days.

As to `F[C@H]1CN(CCc2ccc(-c3noc(C(F)(F)F)n3)cc2)CC[C@@H]1Nc1nc2ccccc2[nH]1` [Compound 8], in data set [1], the solubility at 2 h was found to be 100 µM (≈ 47.4 µg/mL). The “fold improvement of antiplasmodium activity over 7” value in data set [2] (PfNF54) stood at 1.5 fold. Moreover, the IC50 in data set [2] (Plasmodium falciparum, NF54, read-out: PfIC50 NF54, sensitive NF54 strain) was 0.14 to 0.65 µM; in data set [2] (read-out: PfIC50 NF54, sensitive NF54 strain), 0.147 µM; in data set [3] (Plasmodium falciparum, K1, read-out: PfIC50 K1), 0.384 µM. Besides, the “RI (resistance index = PfK1 IC50/PfNF54 IC50)” value in data set [3] amounted to 2.61.

On to `COC(=O)[C@H]1[C@H]2C[C@@H]3c4[nH]c5cc(OC)ccc5c4CCN3C[C@H]2C[C@@H](OC(=O)c2cc(OC)c(OC)c(OC)c2)[C@@H]1OC` [reserpine, reference compound], for which, in data set [1], the solubility at 2 h is less than 10 µM.

Take `CN(C)c1ccc2nc3ccc(N(C)C)cc3[s+]c2c1` [methylene blue, reference compound]: the IC50 in data set [4] (NF54, read-out: gametocytes IC50, immature-stage (PfiGc / PfEG), stages I–III, n = 1, technical triplicate) was 0.2 µM.

Compound `FC1CN(CCc2ccc(-c3noc(C(F)(F)F)n3)cc2)CCC1Nc1nc2ccccc2[nH]1` (stereo not drawn) [Compound 7] showed an IC50 at 4 min against hERG K+ channel (pH 7.4, QPatch, CHO K1 cells expressing hERG) of 0.98 µM. The selectivity ratio at 4 min on hERG K+ channel (pH 7.4, read-out: hERG SI (selectivity index = hERG IC50/PfNF54 IC50)) stood at 4.47. Also, the solubility at 2 h in data set [1] (PBS buffer) was 120 µM (≈ 56.9 µg/mL). Besides, the inhibition at 1 µM in data set [5] worked out at 10.9 ± 2.3%; in data set [4], 0%. For the same compound, the inhibition at 5 µM in data set [5] turned out to be 37.8 ± 0.5%; in data set [4], 27.6 ± 0.8%. In addition, the IC50 in data set [5] (NF54, read-out: gametocytes IC50, late-stage (PfLGc / PfLG)) was 8 µM; in data set [4] (NF54, read-out: gametocytes IC50, immature-stage (PfiGc / PfEG)) it was 8.16 µM.

For the compound `COc1ccc(CCN2CCC(Nc3nc4ccccc4n3Cc3ccc(F)cc3)CC2)cc1` [AST, astemizole, reference compound], the inhibition at 1 µM in data set [6] (read-out: Late gametocytes (LG) % activity, 1.0 µM) came out at 13%; in data set [5], 0%; in data set [4] it was 5%. Moreover, the inhibition at 5 µM in data set [6] (read-out: Late gametocytes (LG) % activity, 5.0 µM) stood at 52%; in data set [5], 11%; in data set [4], 61%.

The solubility is how much of the substance goes into solution per volume.
